Reference: patent publication US20240368163A1, “COMPOUNDS AND METHODS FOR MODULATING SPLICING” (REMIX THERAPEUTICS INC., priority 2021, published 2024)

Experiments:
Type in all cases: cell-based, human
HTT [1] = assay: Splicing RT-qPCR assay, HTT mRNA canonical junction (CJ) and alternative junction (AJ); settings: Homo sapiens, gene panel, CJ qPCR, protocol of Example 142; read-out: HTT IC50 (decrease in CJ mRNA levels)
Summary of the method: (§1)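 A673 or K562 cells treated 24 h at 37 °C with 11-point 3-fold dilutions, top 10 uM, DMSO ≤0.25%. Lysates read by RT-qPCR for CJ and AJ isoforms, normalized to GAPDH, GUSB or PPIA; ΔΔCt vs DMSO converted to RQ, then percent response.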

Target C [2] = assay: Splicing RT-qPCR panel, Target C canonical junction (CJ) mRNA; settings: Homo sapiens, gene panel, CJ qPCR, protocol of Example 142; read-out: Target C IC50 (decrease in CJ mRNA levels)
Summary of the method: as §1

Target C [3] = assay: HiBiT protein abundance assay, Target C; settings: Homo sapiens, K562, 24 h, Table 13B, modified K562 cells
Summary of the method: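 Cells carrying the HiBiT knock-in were plated at 10000 cells/well, dosed with compound (10-point, 3-fold, 10 μM top final) and incubated 24 hours at 37 °C. Lytic reagent was then added and luminescence read. Percent response fed a 4PL fit for IC50.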

MYB [4] = assay: HiBiT protein abundance assay, MYB; settings: Homo sapiens, K562, 24 h, Table 13B, modified K562 cells
Summary of the method: (§2)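 Target abundance was measured as HiBiT luminescence after 24 h compound treatment of tagged K562 cells. Responses were normalized between unmodified K562 and DMSO-treated tagged cells, and IC50 taken at the 50% level of a 4PL curve.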

MYB [5] = assay: Splicing RT-qPCR assay, MYB mRNA canonical junction (CJ) and alternative junction (AJ); settings: Homo sapiens, gene panel, CJ qPCR, protocol of Example 142; read-out: MYB IC50 (decrease in CJ mRNA levels)
Summary of the method: as §1

SMN2 = assay: Splicing RT-qPCR panel, SMN2 canonical junction (CJ) mRNA; settings: Homo sapiens, gene panel, CJ qPCR, protocol of Example 142; read-out: SMN2 IC50 (decrease in CJ mRNA levels)
Summary of the method: as §1

HTT [6] = assay: HiBiT protein abundance assay, HTT; settings: Homo sapiens, K562, 24 h, Table 13B, modified K562 cells
Summary of the method: as §2

SMILES	IC50 (HTT [1]) [µM]	IC50 (Target C [2]) [µM]	IC50 (Target C [3]) [µM]	IC50 (MYB [4]) [µM]	IC50 (MYB [5]) [µM]	IC50 (SMN2) [µM]	IC50 (HTT [6]) [µM]
COc1nc(-c2cnc(N(C)[C@@H]3C[C@H]4CC[C@@H](C3)N4)nc2)ccc1-c1cn[nH]c1 [Compound 981]	0.1 to 1	1 to 10	0.1 to 1	0.1 to 1	1 to 10	0.1 to 1	< 0.1
COc1nc(-c2ccc(N(C)C3CC(C)(C)NC(C)(C)C3)nc2)ccc1-c1cn[nH]c1 [Compound 993]	< 0.1	0.1 to 1	0.1 to 1	0.1 to 1	0.1 to 1	< 0.1	< 0.1
COc1nc(-c2ccc(N(C)C3CC(C)(C)NC(C)(C)C3)nc2)ccc1-c1cnn(C)c1 [Compound 994]	0.1 to 1	0.1 to 1	0.1 to 1	1 to 10	0.1 to 1	1 to 10	0.1 to 1
COc1nc(-c2ccc(N(C)C3CC(C)(C)NC(C)(C)C3)nc2)ccc1-n1cccn1 [Compound 995]	1 to 10	> 10	1 to 10	1 to 10	> 10	1 to 10	1 to 10
COc1nc(-c2ccc(N(C)C3CC(C)(C)NC(C)(C)C3)nc2)ccc1-c1cnn(C)n1 [Compound 996]	0.1 to 1	1 to 10	0.1 to 1	1 to 10	1 to 10	0.1 to 1	0.1 to 1
COc1nc(-c2ncc(N(C)[C@@H]3C[C@H]4CC[C@@H](C3)N4)cn2)ccc1-c1cn[nH]c1 [Compound 997]	> 10	> 10	> 10	> 10	> 10	> 10	> 10

Other lines, results leading:

IC50 (HTT [1]) [µM]	IC50 (Target C [2]) [µM]	IC50 (Target C [3]) [µM]	IC50 (MYB [4]) [µM]	IC50 (MYB [5]) [µM]	IC50 (SMN2) [µM]	IC50 (HTT [6]) [µM]	SMILES
1 to 10	1 to 10	1 to 10	1 to 10	1 to 10	0.1 to 1	0.1 to 1	COc1nc(-c2ccc(NC3CCNCC3)nc2)ccc1-c1cnn(C)c1 [Compound 986]
> 10	> 10	1 to 10	1 to 10	> 10	1 to 10	> 10	COc1nc(-c2ccc(NC3CCNCC3)nc2)ccc1-n1cccn1 [Compound 987]
1 to 10	> 10	1 to 10	1 to 10	> 10	0.1 to 1	1 to 10	COc1nc(-c2ccc(NC3CCNCC3)nc2)ccc1-c1cnn(C)n1 [Compound 988]
0.1 to 1	1 to 10	0.1 to 1	1 to 10	1 to 10	0.1 to 1	0.1 to 1	COc1nc(-c2ccc(OC3CC(C)(C)NC(C)(C)C3)nc2)ccc1-c1cn[nH]c1 [Compound 989]
> 10	> 10	1 to 10	> 10	> 10	> 10	1 to 10	COc1nc(-c2ccc(OC3CC(C)(C)NC(C)(C)C3)nc2)ccc1-n1cccn1 [Compound 991]
1 to 10	> 10	1 to 10	1 to 10	> 10	1 to 10	0.1 to 1	COc1nc(-c2ccc(OC3CC(C)(C)NC(C)(C)C3)nc2)ccc1-c1cnn(C)n1 [Compound 992]
0.1 to 1	> 10	1 to 10	> 10	> 10	0.1 to 1	0.1 to 1	COc1nc(-c2ccc(N3CCC(NC4CC4)C3)nn2)ccc1-c1cn[nH]c1 (centres unmarked) [Compound 998]
1 to 10	1 to 10	> 10	1 to 10	1 to 10	0.1 to 1	1 to 10	COc1nc(-c2ccc(OC3CC(C)(C)NC(C)(C)C3)nn2)cnc1-c1cn[nH]c1 [Compound 999]
